Reference: ChEMBL document CHEMBL4840365, “BMS-813160: A Potent CCR2 and CCR5 Dual Antagonist Selected as a Clinical Candidate” (ACS Med Chem Lett, 2021)

Experiments:
[1] = molecular target: C-C chemokine receptor type 2 (Homo sapiens, UniProt P41597); experiment: Antagonist activity at CCR2 in human whole blood assessed as inhibition of CCL2-induced CD11b upregulation; assay type: functional, tissue-based
[2] = molecular target: T1, C-C chemokine receptor type 1 (Homo sapiens, UniProt P32246); experiment: Displacement of [125I]MIP-1alpha from CCR1 in human THP-1 cells incubated for 12 hrs by radioligand competition assay; assay type: cell-based
T1 sequence (P32246 whole entry): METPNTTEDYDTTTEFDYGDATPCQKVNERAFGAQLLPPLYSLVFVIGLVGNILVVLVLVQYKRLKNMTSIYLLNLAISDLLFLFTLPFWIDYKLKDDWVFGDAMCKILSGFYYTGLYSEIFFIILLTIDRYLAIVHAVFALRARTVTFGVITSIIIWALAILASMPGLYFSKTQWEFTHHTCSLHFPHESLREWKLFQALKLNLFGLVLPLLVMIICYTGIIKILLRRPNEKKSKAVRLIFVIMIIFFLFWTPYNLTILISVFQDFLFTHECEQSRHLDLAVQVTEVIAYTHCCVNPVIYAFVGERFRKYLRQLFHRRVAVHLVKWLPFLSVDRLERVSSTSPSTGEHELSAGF

[3] = molecular target: T2, C-C chemokine receptor type 4 (Homo sapiens, UniProt P51679); experiment: Displacement of [125I]chemokine from CCR4 (unknown origin) by gamma counter method
T2 sequence (P51679 whole entry): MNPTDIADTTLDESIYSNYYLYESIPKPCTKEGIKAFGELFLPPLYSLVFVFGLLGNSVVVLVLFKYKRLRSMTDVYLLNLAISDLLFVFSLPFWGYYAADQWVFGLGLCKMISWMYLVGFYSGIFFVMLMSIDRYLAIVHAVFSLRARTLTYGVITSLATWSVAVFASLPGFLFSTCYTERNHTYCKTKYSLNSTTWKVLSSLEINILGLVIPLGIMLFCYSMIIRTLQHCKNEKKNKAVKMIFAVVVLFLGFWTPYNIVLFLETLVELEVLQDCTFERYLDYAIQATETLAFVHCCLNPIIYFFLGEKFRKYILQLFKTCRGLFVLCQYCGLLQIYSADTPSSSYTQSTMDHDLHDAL

[4] = molecular target: T3, C-X-C chemokine receptor type 2 (Homo sapiens, UniProt P25025); experiment: Displacement of [125I]-interleukin-8 from human CXCR2 expressed in human pEAK rapid cells incubated for 90 mins by microscintillation counting analysis; assay type: cell-based
T3 sequence (P25025 whole entry): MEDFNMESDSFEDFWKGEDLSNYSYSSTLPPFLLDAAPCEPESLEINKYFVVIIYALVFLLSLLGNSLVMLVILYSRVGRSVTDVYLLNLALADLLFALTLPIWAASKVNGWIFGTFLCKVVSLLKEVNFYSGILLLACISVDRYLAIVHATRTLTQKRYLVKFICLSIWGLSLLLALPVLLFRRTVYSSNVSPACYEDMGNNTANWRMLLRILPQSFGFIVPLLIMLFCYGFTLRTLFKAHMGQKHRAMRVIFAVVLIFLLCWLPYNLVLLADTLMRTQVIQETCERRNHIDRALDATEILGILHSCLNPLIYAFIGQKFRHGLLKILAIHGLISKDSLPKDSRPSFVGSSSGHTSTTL

[5] = molecular target: C-C chemokine receptor type 2 (Mus musculus, UniProt P51683); experiment: Displacement of [125I]-CCL2 from mouse CCR2
[6] = Stability in human liver microsomes assessed as half life at 0.5 uM measured up to 45 mins in the presence of NADPH by LC-MS/MS analysis; assay type: ADME, Microsome
[7] = Stability in mouse liver microsomes assessed as half life at 0.5 uM measured up to 45 mins in the presence of NADPH by LC-MS/MS analysis; assay type: ADME, Microsome
[8] = Stability in rat liver microsomes assessed as half life at 0.5 uM measured up to 45 mins in the presence of NADPH by LC-MS/MS analysis; assay type: ADME, Microsome
hERG (KCNH2) = hERG (KCNH2) (Homo sapiens, UniProt Q12809); experiment: Inhibition of human ERG expressed in HEK293 cells at 30 uM by patch-clamp assay relative to control; assay type: cell-based; conditions: HEK293 cells that express hERG
[9] = Protein binding in human plasma assessed as unbound fraction at 1 uM by equilibrium dialysis method; assay type: ADME, cell-free
[10] = Protein binding in mouse plasma assessed as unbound fraction at 1 uM by equilibrium dialysis method; assay type: ADME, cell-free
[11] = Protein binding in rat plasma assessed as unbound fraction at 1 uM by equilibrium dialysis method; assay type: ADME, cell-free
[12] = Permeability of the compound at pH 5.5 by PAMPA; assay type: ADME; conditions: read-out: permeability
[13] = Clearance in mouse at 2 mg/kg, iv; assay type: ADME, organism-based; conditions: in vivo
[14] = Clearance in rat at 2 mg/kg, iv; assay type: ADME, organism-based; conditions: in vivo
[15] = Clearance in dog at 1 mg/kg, iv; assay type: ADME, organism-based, Canis lupus familiaris; conditions: in vivo
[16] = Clearance in cynomolgus monkey at 1 mg/kg, iv; assay type: ADME, organism-based, Macaca fascicularis; conditions: in vivo
[17] = Oral bioavailability in mouse at 10 mg/kg; assay type: ADME, organism-based; conditions: in vivo
[18] = Oral bioavailability in rat at 10 mg/kg; assay type: ADME, organism-based; conditions: in vivo
[19] = Oral bioavailability in dog at 1 mg/kg; assay type: ADME, organism-based, Canis lupus familiaris; conditions: in vivo
[20] = Oral bioavailability in cynomolgus monkey at 1 mg/kg; assay type: ADME, organism-based, Macaca fascicularis; conditions: in vivo
[21] = AUC (0 to 24 hrs) in mouse at 10 mg/kg, po; assay type: ADME, organism-based; parameters: time < 24 hr, route oral, dose 10 mg/kg; conditions: in vivo
[22] = AUC (0 to 24 hrs) in rat at 10 mg/kg, po; assay type: ADME, organism-based; parameters: time < 24 hr, route oral, dose 10 mg/kg; conditions: in vivo
[23] = AUC (0 to 24 hrs) in dog at 1 mg/kg, po; assay type: ADME, organism-based, Canis lupus familiaris; parameters: time < 24 hr, route oral, dose 1 mg/kg; conditions: in vivo
[24] = AUC (0 to 24 hrs) in cynomolgus monkey at 1 mg/kg, po; assay type: ADME, organism-based, Macaca fascicularis; parameters: time < 24 hr, route oral, dose 1 mg/kg; conditions: in vivo
Mus musculus = experiment: Antiinflammatory activity against human CCR2 knock-in thioglycollate-induced peritonitis C57BL/6 mouse model assessed as reduction in inflammatory monocyte and macrophage infiltration in peritoneum administered orally twice daily for 2 days with first dose 1 hr prior to thioglycollate challenge; assay type: functional, organism-based; conditions: dose 10-160 mg/kg, time 2.0 day
Homo sapiens = species: Homo sapiens; experiment: Selectivity ratio of IC50 for displacement of [125I]-CCL2 from CCR2 in human PBMC cells to IC50 for displacement of [125I]-MIP-1beta from CCR5 in human peripheral T cells; assay type: cell-based

hERG (KCNH2), sequence (Q12809 whole entry): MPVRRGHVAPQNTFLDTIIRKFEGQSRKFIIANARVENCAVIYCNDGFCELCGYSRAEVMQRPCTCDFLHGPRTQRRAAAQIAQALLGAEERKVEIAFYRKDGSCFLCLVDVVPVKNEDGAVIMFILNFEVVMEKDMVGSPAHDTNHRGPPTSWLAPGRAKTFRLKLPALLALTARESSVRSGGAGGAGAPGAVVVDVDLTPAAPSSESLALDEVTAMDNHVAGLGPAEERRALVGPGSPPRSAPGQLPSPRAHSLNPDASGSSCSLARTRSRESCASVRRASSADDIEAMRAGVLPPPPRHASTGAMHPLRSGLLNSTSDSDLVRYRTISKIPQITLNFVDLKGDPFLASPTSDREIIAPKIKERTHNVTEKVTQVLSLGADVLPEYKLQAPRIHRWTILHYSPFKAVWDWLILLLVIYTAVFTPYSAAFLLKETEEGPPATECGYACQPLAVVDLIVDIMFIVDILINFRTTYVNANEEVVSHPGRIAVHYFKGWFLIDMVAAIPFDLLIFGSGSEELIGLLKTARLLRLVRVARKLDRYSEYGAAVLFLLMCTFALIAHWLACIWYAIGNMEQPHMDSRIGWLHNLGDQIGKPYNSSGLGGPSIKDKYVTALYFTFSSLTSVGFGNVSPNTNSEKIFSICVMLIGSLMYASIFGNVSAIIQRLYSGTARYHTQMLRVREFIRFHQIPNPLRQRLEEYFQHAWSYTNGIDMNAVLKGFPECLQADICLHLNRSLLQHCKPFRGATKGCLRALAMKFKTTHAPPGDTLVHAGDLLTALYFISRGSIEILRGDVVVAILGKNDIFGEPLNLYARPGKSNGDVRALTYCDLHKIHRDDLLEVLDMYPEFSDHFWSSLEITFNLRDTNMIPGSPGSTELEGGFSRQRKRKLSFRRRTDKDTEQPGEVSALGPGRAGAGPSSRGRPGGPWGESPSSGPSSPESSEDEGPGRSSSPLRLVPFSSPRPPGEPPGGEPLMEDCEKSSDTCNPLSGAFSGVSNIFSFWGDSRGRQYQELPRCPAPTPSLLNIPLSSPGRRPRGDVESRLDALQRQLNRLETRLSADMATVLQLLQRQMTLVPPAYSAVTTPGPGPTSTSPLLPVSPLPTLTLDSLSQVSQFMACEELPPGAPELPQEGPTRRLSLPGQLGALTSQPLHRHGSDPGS
C-C chemokine receptor type 2 (Homo sapiens, UniProt P41597), sequence (P41597 whole entry): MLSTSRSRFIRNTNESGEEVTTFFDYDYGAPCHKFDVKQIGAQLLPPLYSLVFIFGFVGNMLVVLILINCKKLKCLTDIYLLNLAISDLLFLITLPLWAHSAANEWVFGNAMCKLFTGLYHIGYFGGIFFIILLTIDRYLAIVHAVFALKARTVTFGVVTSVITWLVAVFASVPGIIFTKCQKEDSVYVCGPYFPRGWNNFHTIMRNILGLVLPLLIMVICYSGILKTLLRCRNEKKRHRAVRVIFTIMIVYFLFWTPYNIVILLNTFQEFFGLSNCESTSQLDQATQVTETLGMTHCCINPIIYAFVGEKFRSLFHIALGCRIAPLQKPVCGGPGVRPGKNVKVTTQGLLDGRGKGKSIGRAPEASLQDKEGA
C-C chemokine receptor type 2 (Mus musculus, UniProt P51683), sequence (P51683 whole entry): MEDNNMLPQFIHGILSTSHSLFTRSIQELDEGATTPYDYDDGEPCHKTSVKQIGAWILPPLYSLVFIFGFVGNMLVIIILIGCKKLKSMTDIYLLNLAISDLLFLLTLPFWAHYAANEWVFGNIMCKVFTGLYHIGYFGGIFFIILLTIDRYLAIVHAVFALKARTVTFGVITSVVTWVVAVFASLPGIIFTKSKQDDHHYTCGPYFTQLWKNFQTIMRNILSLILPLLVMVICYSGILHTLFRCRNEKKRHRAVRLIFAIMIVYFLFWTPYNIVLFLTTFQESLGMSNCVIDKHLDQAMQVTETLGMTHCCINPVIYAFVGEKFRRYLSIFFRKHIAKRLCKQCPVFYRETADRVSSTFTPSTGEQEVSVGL

## CC(=O)N[C@@H]1C[C@H](NC(C)(C)C)CC[C@@H]1N1CC[C@H](Nc2ncnc3ccc(C(F)(F)F)cc23)C1=O
[1]
  IC50: 0.0026 µM

## CC(=O)N[C@@H]1C[C@H](NC(C)(C)C)CC[C@@H]1N1CC[C@H](Nc2ncnc3cc(C(C)(C)C)nn23)C1=O [BMS-813160]
[2]
  IC50: > 25 µM
[3]
  IC50: > 40 µM
[4]
  IC50: > 40 µM
[5]
  IC50: 0.045 µM
[6]
  half-life at 0.5 µM: 2.43 h
[7]
  half-life at 0.5 µM: > 3.33 h
[8]
  half-life at 0.5 µM: > 3.33 h
hERG (KCNH2)
  inhibition at 30 µM: 9%
[9]
  fraction unbound at 1 µM: 0.71
[10]
  fraction unbound at 1 µM: 0.58
[11]
  fraction unbound at 1 µM: 0.69
[12]
  Papp: 1.9 ×10⁻⁶ cm/s
[13]
  clearance: 85 mL/min/kg
[14]
  clearance: 50 mL/min/kg
[15]
  clearance: 17 mL/min/kg
[16]
  clearance: 16 mL/min/kg
[17]
  bioavailability: 100%
[18]
  bioavailability: 94%
[19]
  bioavailability: 61%
[20]
  bioavailability: 63%
[21]
  AUC(0-t) at 24 h: 5.41 µM·h
[22]
  AUC(0-t) at 24 h: 6.5 µM·h
[23]
  AUC(0-t) at 24 h: 1.23 µM·h
[24]
  AUC(0-t) at 24 h: 1.3 µM·h
Mus musculus
  Activity: Dose-Dependent Effect
Homo sapiens
  Ratio IC50: 2
